This is an account of results in patent US12577234B2, “Antagonists of the muscarinic acetylcholine receptor M4” (Vanderbilt University, priority 2017, dated 2026).

The experiment deals with T1, human mAChR M4 (Homo sapiens, UniProt P08173).
T1 construct: expressed in transfected cells; host or cells: CHO-K1 (ATCC), stably co-expressing chimeric G protein Gqi5
T1 sequence (P08173 1-479): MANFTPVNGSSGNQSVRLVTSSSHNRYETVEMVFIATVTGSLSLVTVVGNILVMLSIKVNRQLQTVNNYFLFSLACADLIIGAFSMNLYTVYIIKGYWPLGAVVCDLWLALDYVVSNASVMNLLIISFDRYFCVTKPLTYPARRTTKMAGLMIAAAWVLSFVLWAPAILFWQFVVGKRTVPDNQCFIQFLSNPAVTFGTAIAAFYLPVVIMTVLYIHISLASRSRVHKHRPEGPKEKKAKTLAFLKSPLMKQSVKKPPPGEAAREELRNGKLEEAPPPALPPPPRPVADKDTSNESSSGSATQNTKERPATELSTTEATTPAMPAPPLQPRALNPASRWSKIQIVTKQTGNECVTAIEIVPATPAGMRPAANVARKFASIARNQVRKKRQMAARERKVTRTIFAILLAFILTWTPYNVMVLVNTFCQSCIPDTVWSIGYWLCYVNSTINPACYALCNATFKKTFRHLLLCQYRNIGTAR
The experiment can be described thus: mAChR M4 cell-based functional assay (calcium mobilization, EC80 acetylcholine), human M4. The conditions noted are these: Table 10; for IC50: M4/Gqi5/CHO-K1 cells, decrease of EC80 acetylcholine response. In outline:
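CHO-K1 cells stably expressing human M4 with chimeric Gqi5; intracellular calcium rise read on FDSS as fluorescence static ratio at 1 Hz. Compounds in 10-point 1:3 dilution series; IC50 taken as concentration-dependent decrease of the EC80 acetylcholine response, four-parameter logistic fit.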
A general note: A change in cytosolic calcium serves as a functional read-out for many receptors and channels.

As to `CC(=O)Nc1ccc(-c2ccc(O[C@H]3C[C@@H]4CN(CC5CCCCC5)C[C@@H]4C3)nn2)cc1` [Compound 130, N-[4-[6-[[(3aR,5s,6aS)-2-(cyclohexylmethyl)-3,3a,4,5,6,6a-hexahydro-1H-cyclopenta[c]pyrrol-5-yl]oxy]pyridazin-3-yl]phenyl]acetamide], the “Human M4 Emin” value is 3% and the IC50 is 58.3 nM.
Taken in the same sequence, the figures for `CC(=O)Nc1ccc(-c2ccc(O[C@H]3C[C@@H]4CN(Cc5ccc(F)cc5)C[C@@H]4C3)nn2)cc1` [Compound 131, N-[4-[6-[[(3aR,5s,6aS)-2-[(4-fluorophenyl)methyl]-3,3a,4,5,6,6a-hexahydro-1H-cyclopenta[c]pyrrol-5-yl]oxy]pyridazin-3-yl]phenyl]acetamide] were 3% and 977 nM.
The matching figures for `CC(=O)Nc1ccc(-c2ccc(O[C@H]3C[C@@H]4CN(Cc5ncccc5C)C[C@@H]4C3)nn2)cc1` [Compound 133, N-[4-[6-[[(3aR,5s,6aS)-2-[(3-methyl-2-pyridyl)methyl]-3,3a,4,5,6,6a-hexahydro-1H-cyclopenta[c]pyrrol-5-yl]oxy]pyridazin-3-yl]phenyl]acetamide]: 5% and 1070 nM.
`Cc1nn(C)cc1-c1ccc(O[C@H]2C[C@@H]3CN(CCC(C)(C)C)C[C@@H]3C2)nn1` [Compound 134, (3aR,5s,6aS)-2-(3,3-dimethylbutyl)-5-[6-(1,3-dimethylpyrazol-4-yl)pyridazin-3-yl]oxy-3,3a,4,5,6,6a-hexahydro-1H-cyclopenta[c]pyrrole]: the “Human M4 Emin” value was found to be 4% and the IC50 is 17.3 nM.
Consider `Cc1cnn(C)c1-c1ccc(O[C@H]2C[C@@H]3CN(CCC(C)(C)C)C[C@@H]3C2)nn1` [Compound 135, (3aR,5s,6aS)-2-(3,3-dimethylbutyl)-5-[6-(2,4-dimethylpyrazol-3-yl)pyridazin-3-yl]oxy-3,3a,4,5,6,6a-hexahydro-1H-cyclopenta[c]pyrrole], for which the “Human M4 Emin” value came out at 5% and the IC50 came to 287 nM.
The matching figures for `Cc1noc(C)c1-c1ccc(O[C@H]2C[C@@H]3CN(CCC(C)(C)C)C[C@@H]3C2)nn1` [Compound 136, 4-[6-[[(3aR,5s,6aS)-2-(3,3-dimethylbutyl)-3,3a,4,5,6,6a-hexahydro-1H-cyclopenta[c]pyrrol-5-yl]oxy]pyridazin-3-yl]-3,5-dimethyl-isoxazole]: 3% and 174 nM.
The matching figures for `CC(C)(C)CCN1C[C@H]2C[C@H](Oc3ccc(-c4ccc(C(F)(F)F)cc4)nn3)C[C@H]2C1` [Compound 139, (3aR,5s,6aS)-2-(3,3-dimethylbutyl)-5-[6-[4-(trifluoromethyl)phenyl]pyridazin-3-yl]oxy-3,3a,4,5,6,6a-hexahydro-1H-cyclopenta[c]pyrrole]: 4% and 1560 nM.
Taken in the same sequence, the figures for `Cc1noc(C)c1-c1ccc(N[C@H]2C[C@@H]3CN(CCC(C)(C)C)C[C@@H]3C2)nn1` [Compound 142, (3aR,5s,6aS)-2-(3,3-dimethylbutyl)-N-[6-(3,5-dimethylisoxazol-4-yl)pyridazin-3-yl]-3,3a,4,5,6,6a-hexahydro-1H-cyclopenta[c]pyrrol-5-amine] were 6% and 1.82 nM.
With `CC(C)(C)CCN1C[C@H]2C[C@H](Nc3ccc(N4CCOCC4)nn3)C[C@H]2C1` [Compound 143, (3aR,5s,6aS)-2-(3,3-dimethylbutyl)-N-(6-morpholinopyridazin-3-yl)-3,3a,4,5,6,6a-hexahydro-1H-cyclopenta[c]pyrrol-5-amine], the “Human M4 Emin” value stood at 6% and the IC50 came to 5020 nM.
The matching figures for `Cc1cnn(C)c1-c1ccc(NC(=O)[C@@H]2C[C@@H]3CN(CCC(C)(C)C)C[C@@H]3C2)nn1` [Compound 144, (3aR,5r,6aS)-2-(3,3-dimethylbutyl)-N-[6-(2,4-dimethylpyrazol-3-yl)pyridazin-3-yl]-3,3a,4,5,6,6a-hexahydro-1H-cyclopenta[c]pyrrole-5-carboxamide]: 5% and 405 nM.
With `Cc1cnn(C)c1-c1ccc(NC(=O)[C@H]2C[C@@H]3CN(CCC(C)(C)C)C[C@@H]3C2)nn1` [Compound 145, (3aR,5s,6aS)-2-(3,3-dimethylbutyl)-N-[6-(2,4-dimethylpyrazol-3-yl)pyridazin-3-yl]-3,3a,4,5,6,6a-hexahydro-1H-cyclopenta[c]pyrrole-5-carboxamide], the “Human M4 Emin” value was 4% and the IC50 worked out at 239 nM.
Taken in the same sequence, the figures for `Cc1cnn(C)c1-c1ccc(OC[C@H]2C[C@@H]3CN(CCC(C)(C)C)C[C@@H]3C2)nn1` [Compound 146, (3aR,5s,6aS)-2-(3,3-dimethylbutyl)-5-[[6-(2,4-dimethylpyrazol-3-yl)pyridazin-3-yl]oxymethyl]-3,3a,4,5,6,6a-hexahydro-1H-cyclopenta[c]pyrrole] were 4% and 167 nM.
Take `Cc1cnn(C)c1-c1ccc(OC[C@@H]2C[C@@H]3CN(CCC(C)(C)C)C[C@@H]3C2)nn1` [Compound 147, (3aR,5r,6aS)-2-(3,3-dimethylbutyl)-5-[[6-(2,4-dimethylpyrazol-3-yl)pyridazin-3-yl]oxymethyl]-3,3a,4,5,6,6a-hexahydro-1H-cyclopenta[c]pyrrole]: the “Human M4 Emin” value was found to be 4% and the IC50 was determined as 42.4 nM.
Taken in the same sequence, the figures for `CC(=O)Nc1ccc(-c2ccc(N[C@H]3C[C@@H]4CN(CCC(C)(C)C)C[C@@H]4C3)c(F)c2F)cc1` [Compound 148, N-[4-[4-[[(3aR,5s,6aS)-2-(3,3-dimethylbutyl)-3,3a,4,5,6,6a-hexahydro-1H-cyclopenta[c]pyrrol-5-yl]amino]-2,3-difluoro-phenyl]phenyl]acetamide] were 4% and 997 nM.
Taken in the same sequence, the figures for `Cc1nn(C)cc1-c1ccc(N[C@H]2C[C@@H]3CN(CCC(C)(C)C)C[C@@H]3C2)nc1` [Compound 149, (3aR,5s,6aS)-2-(3,3-dimethylbutyl)-N-[5-(1,3-dimethylpyrazol-4-yl)-2-pyridyl]-3,3a,4,5,6,6a-hexahydro-1H-cyclopenta[c]pyrrol-5-amine] were 4% and 127 nM.
The matching figures for `Cc1nn(C)cc1-c1ccc(N[C@H]2C[C@@H]3CN(CC45CC6CC(CC(C6)C4)C5)C[C@@H]3C2)nc1` [Compound 150, (3aR,5s,6aS)-2-(1-adamantylmethyl)-N-[5-(1,3-dimethylpyrazol-4-yl)-2-pyridyl]-3,3a,4,5,6,6a-hexahydro-1H-cyclopenta[c]pyrrol-5-amine]: 3% and 161 nM.
On to `Cc1nn(C)cc1-c1ccc(N[C@H]2C[C@@H]3CN(CC4CC5C=CC4C5)C[C@@H]3C2)nc1` (stereo partly drawn) [Compound 151, (3aR,5s,6aS)-2-(5-bicyclo[2.2.1]hept-2-enylmethyl)-N-[5-(1,3-dimethylpyrazol-4-yl)-2-pyridyl]-3,3a,4,5,6,6a-hexahydro-1H-cyclopenta[c]pyrrol-5-amine], for which the “Human M4 Emin” value came out at 3% and the IC50 is 77.3 nM.
The matching figures for `Cc1nn(C)cc1-c1ccc(N[C@H]2C[C@@H]3CN(CC4CCOCC4)C[C@@H]3C2)nc1` [Compound 152, (3aR,5s,6aS)-N-[5-(1,3-dimethylpyrazol-4-yl)-2-pyridyl]-2-(tetrahydropyran-4-ylmethyl)-3,3a,4,5,6,6a-hexahydro-1H-cyclopenta[c]pyrrol-5-amine]: 8% and 1580 nM.
The matching figures for `Cc1nn(C)cc1-c1cnc(N[C@H]2C[C@@H]3CN(CCC(C)(C)C)C[C@@H]3C2)cn1` [Compound 153, (3aR,5s,6aS)-2-(3,3-dimethylbutyl)-N-[5-(1,3-dimethylpyrazol-4-yl)pyrazin-2-yl]-3,3a,4,5,6,6a-hexahydro-1H-cyclopenta[c]pyrrol-5-amine]: 5% and 124 nM.
The matching figures for `Cc1nn(C)cc1-c1cnc(N[C@H]2C[C@@H]3CN(CC4CC5C=CC4C5)C[C@@H]3C2)cn1` (stereo partly drawn) [Compound 154, (3aR,5s,6aS)-2-(5-bicyclo[2.2.1]hept-2-enylmethyl)-N-[5-(1,3-dimethylpyrazol-4-yl)pyrazin-2-yl]-3,3a,4,5,6,6a-hexahydro-1H-cyclopenta[c]pyrrol-5-amine]: 4% and 30.8 nM.
Consider `Cc1nn(C)cc1-c1cnc(N[C@H]2C[C@@H]3CN(CC45CC6CC(CC(C6)C4)C5)C[C@@H]3C2)cn1` [Compound 155, (3aR,5s6aS)-2-(1-adamantylmethyl)-N-[5-(1,3-dimethylpyrazol-4-yl)pyrazin-2-yl]-3,3a,4,5,6,6a-hexahydro-1H-cyclopenta[c]pyrrol-5-amine], for which the “Human M4 Emin” value worked out at 4% and the 50% inhibitory concentration (IC50) turned out to be 15.9 nM.
`CC(=O)Nc1ccc(-c2cnc(N[C@H]3C[C@@H]4CN(CCC(C)(C)C)C[C@@H]4C3)cn2)cc1` [Compound 156, N-[4-[5-[[(3aR,5s,6aS)-2-(3,3-dimethylbutyl)-3,3a,4,5,6,6a-hexahydro-1H-cyclopenta[c]pyrrol-5-yl]amino]pyrazin-2-yl]phenyl]acetamide]: the “Human M4 Emin” value was 5% and the 50% inhibitory concentration (IC50) stood at 192 nM.

In general, IC50 refers to the point on the concentration scale where inhibition reaches its midpoint.
